Data as given in ChEMBL document CHEMBL1152973, “Structure-activity relationship of etomidate derivatives at the GABA(A) receptor: Comparison with binding to 11beta-hydroxylase” (Bioorg Med Chem Lett, 2009).
Calls of active or inactive are those of the source. The calls are words filed in the database; no cut-off is given here.

Columns and labels:
Rattus norvegicus [1] = species: Rattus norvegicus; assay: Displacement of [3H]ethynylpropylbicycloorthobenzoate from GABA receptor from rat cortical membrane at 100 uM by scintillation counting in absence of GABA
Rattus norvegicus [2] = species: Rattus norvegicus; assay: Displacement of [3H]ethynylpropylbicycloorthobenzoate from GABA receptor from rat cortical membrane at 100 uM by scintillation counting in presence of 1 uM GABA
[3] = Displacement of [3H]ethynylpropylbicycloorthobenzoate from GABA receptor from rat cortical membrane by scintillation counting in absence of GABA
[4] = Displacement of [3H]ethynylpropylbicycloorthobenzoate from GABAA receptor from rat cortical membrane by scintillation counting in presence of 1 uM GABA
Rattus norvegicus [5] = species: Rattus norvegicus; assay: Ratio of IC50 for rat cortical membrane GABA receptor in absence of GABA to IC50 for rat cortical membrane GABA receptor in presence of GABA

For `CC(C)(C(=O)c1cccnc1)c1cccnc1`, the Activity (Rattus norvegicus [1]) was “inactive” and the Activity (Rattus norvegicus [2]) was “inactive”.
With `COC(=O)c1cncn1[C@H](C)c1cccc(I)c1` the IC50 [3] was > 300 µM and the IC50 [4] was 53 µM.
With `CC(C)(c1cccnc1)C(O)c1cccnc1` (stereo not given) the Activity (Rattus norvegicus [1]) was “inactive” and the Activity (Rattus norvegicus [2]) was “inactive”.
In the case of `COC(=O)c1cncn1[C@H](C)c1ccc(I)cc1` [IODOMETOMIDATE I-123, R-], the IC50 [3] is reported as > 300 µM and the IC50 [4] is reported as 37 µM.
For `COC(=O)c1cncn1[C@H](C)c1ccc(C)cc1`, the IC50 [3] was > 300 µM and the IC50 [4] was 15.5 µM.
In the case of `COC(=O)c1cncn1[C@H](C)c1ccccc1`, the IC50 [3] is reported as 163 µM, the Ratio IC50 (Rattus norvegicus [5]) is reported as 19.6 and the IC50 [4] is reported as 8.97 µM.
For `COC(=O)c1cncn1[C@@H]1CCc2ccccc21`, the IC50 [3] was > 300 µM and the IC50 [4] was 122 µM.
Molecule `CC(=O)[C@H]1CC[C@H]2[C@@H]3CC[C@H]4C[C@H](O)CC[C@]4(C)[C@H]3C(=O)C[C@]12C` [ALFAXALONE] has an IC50 [3] of 86 µM, a Ratio IC50 (Rattus norvegicus [5]) of 102 and an IC50 [4] of 0.9 µM.
For `C[C@H](c1ccccc1)n1cncc1C(=O)O`, the Activity (Rattus norvegicus [1]) was “inactive” and the Activity (Rattus norvegicus [2]) was “inactive”.
In the case of `COC(=O)c1cncn1[C@H](C)c1cccnc1`, the Activity (Rattus norvegicus [1]) is reported as “inactive” and the Activity (Rattus norvegicus [2]) is reported as “inactive”.
With `COC(=O)c1cncn1[C@H](C)c1ccc(CO)cc1` the IC50 [3] was > 300 µM and the IC50 [4] was 169 µM.
With `C[C@H](c1ccccc1)n1cncc1C(N)=O` the Activity (Rattus norvegicus [1]) was “inactive” and the Activity (Rattus norvegicus [2]) was “inactive”.
In the case of `COC(=O)c1cncn1[C@@H](C)c1ccccc1`, the IC50 [3] is reported as > 300 µM and the IC50 [4] is reported as 202 µM.
For `C[C@H](c1ccccc1)n1cncc1C(=O)OCCF`, the IC50 [3] was 80 µM, the Ratio IC50 (Rattus norvegicus [5]) was 16.6 and the IC50 [4] was 4.78 µM.
Work on `CC(=O)[C@H]1CC[C@H]2[C@@H]3CC[C@H]4C[C@H](O)CC[C@]4(C)[C@H]3CC[C@]12C` [BREXANOLONE] yielded an IC50 [3] of 6.2 µM, a Ratio IC50 (Rattus norvegicus [5]) of 50 and an IC50 [4] of 0.14 µM.
In the case of `CC(C)OC(=O)c1cncn1[C@H](C)c1ccccc1`, the IC50 [3] is reported as 20.7 µM, the Ratio IC50 (Rattus norvegicus [5]) is reported as 14.6 and the IC50 [4] is reported as 1.47 µM.
For `CC[C@H](c1ccccc1)n1cncc1C(=O)OC`, the IC50 [3] was 111 µM, the Ratio IC50 (Rattus norvegicus [5]) was 15.8 and the IC50 [4] was 7.15 µM.
`CCOC(=O)c1cncn1[C@H](C)c1ccccc1` [ETOMIDATE] gave an IC50 [3] of 38 µM, a Ratio IC50 (Rattus norvegicus [5]) of 19.3 and an IC50 [4] of 2.05 µM.
In the case of `CCOC(=O)c1cncn1[C@H](C)c1ccc(I)cc1`, the IC50 [3] is reported as > 300 µM and the IC50 [4] is reported as 33 µM.
In the case of `CC(=O)c1cncn1[C@H](C)c1ccccc1`, the IC50 [3] is reported as > 300 µM and the IC50 [4] is reported as 155 µM.
In the case of `CCCOC(=O)c1cncn1[C@H](C)c1ccccc1`, the IC50 [3] is reported as 15.4 µM, the Ratio IC50 (Rattus norvegicus [5]) is reported as 14.1 and the IC50 [4] is reported as 1.29 µM.
In the case of `COC(=O)c1cncn1Cc1ccccc1`, the IC50 [3] is reported as > 300 µM and the IC50 [4] is reported as 157 µM.
In the case of `COC(=O)c1cncn1[C@H](C)c1ccc(Br)cc1`, the IC50 [3] is reported as 109 µM, the Ratio IC50 (Rattus norvegicus [5]) is reported as 15.6 and the IC50 [4] is reported as 7.62 µM.
